Experimental data as given in patent publication US10307414B2, “Pyridinyl and fused pyridinyl triazolone derivatives” (Takeda Pharmaceutical Company Limited, priority 2013, dated 2019).

Target: human BTK (Homo sapiens (Human), UniProt Q06187)
Assay: BTK inhibition assay: BTK-mediated phosphorylation of FAM-labeled substrate 5-FAM-[…]-NH2 (Caliper microfluidic separation)
Type: biochemical
Conditions: residues 382 to 659 of human BTK; 60 minutes at room temperature; pIC50 = -log(IC50), IC50 molar
Text: The activity of compounds as BTK inhibitors may be determined by a variety of methods, including in vitro and in vivo methods.
This construct engineers an in-frame translational fusion with the Glutathione-S-Transferase (GST) protein for use in affinity purification. The fusion protein derived from this construct contains a protease recognition sequence to liberate the BTK from the GST affinity tag. […] Recombinant proteins are isolated from cellular extracts by passage over Glutathione Sepharose 4B (GE Healthcare) and the BTK moiety is released from the GST affinity tag by treatment with PreScission protease. […] The purity of the fractions is assessed by SDS PAGE and the peak protein fractions are pooled and concentrated using Amicon Ultra-15 Centrifugal Filter Devices (Millipore).
The inhibitory properties of compounds relative to BTK is determined using a black 384-well-plate format in a buffer which contains 50 mM Hepes, 10 mM NaCl, 10 mM MgCl2, 0.2 mM EDTA, 0.01% Brij35®, 1 mM DTT, and 0.1 mg/mL BSA at pH 7.3. […] To quantify the fluorescent-labeled substrate and product following reaction, the test plate is loaded on a Caliper LC-3000, which measures percent of conversion by microfluidic-based separation. […]

Sequence of human BTK (Q06187 382-659): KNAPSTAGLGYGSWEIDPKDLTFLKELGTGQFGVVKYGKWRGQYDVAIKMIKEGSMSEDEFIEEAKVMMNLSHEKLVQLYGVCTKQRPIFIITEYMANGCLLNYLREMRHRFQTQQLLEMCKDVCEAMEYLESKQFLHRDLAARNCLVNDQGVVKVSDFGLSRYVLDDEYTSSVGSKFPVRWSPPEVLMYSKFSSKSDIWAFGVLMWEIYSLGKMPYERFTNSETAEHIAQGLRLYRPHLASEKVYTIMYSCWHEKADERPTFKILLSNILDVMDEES

With `C=CC(=O)N1C[C@@H](C)[C@H](Oc2nc(-c3n[nH]c(=O)[nH]3)cc3ccccc23)C1` (single isomer, unassigned) [Example 19] the “BTK Inhibition (pIC50)” value was greater than 8.2.
